According to ChEMBL document CHEMBL1143738, “Inhibition of S. aureus alpha-hemolysin and B. anthracis lethal toxin by beta-cyclodextrin derivatives” (Bioorg Med Chem, 2007):
The source made the active and inactive calls. No cut-off for these calls is given here.

Legend:
RAW264.7 [1] = assay: Toxicity against mouse RAW264.7 cells upto 100 uM; assay type: cell-based
[2] = Toxicity against mouse RAW264.7 cells; assay type: cell-based
RAW264.7 [3] = assay: Inhibition of Bacillus anthracis lethal toxin-induced cytotoxicity in mouse RAW264.7 cells; assay type: functional, cell-based
Erythrocyte [4] = assay: Inhibition of Staphylococcus aureus alpha-hemolysin-induced cytotoxicity against rabbit RBC; assay type: functional, cell-based; details: Oryctolagus cuniculus
RAW264.7 [5] = assay: Protection against Bacillus anthracis lethal toxin-induced cell death in mouse RAW264.7cells assessed as cell viability in MTS colorimetric assay; assay type: functional, cell-based
Erythrocyte [6] = assay: Protection against Staphylococcus aureus alpha-hemolysin-induced cell death in rabbit RBC assessed as cell viability in MTS colorimetric assay; assay type: functional, cell-based; details: Oryctolagus cuniculus
[7] = target: Protective antigen (Bacillus anthracis) (UniProt P13423); assay: Inhibition of Bacillus anthracis protective antigen 63 reconstituted in diphytanoylphosphatidylcholine lipid membranes assessed as inhibition of channel conductance at 5 uM
Protective antigen (Bacillus anthracis), sequence (P13423 whole entry): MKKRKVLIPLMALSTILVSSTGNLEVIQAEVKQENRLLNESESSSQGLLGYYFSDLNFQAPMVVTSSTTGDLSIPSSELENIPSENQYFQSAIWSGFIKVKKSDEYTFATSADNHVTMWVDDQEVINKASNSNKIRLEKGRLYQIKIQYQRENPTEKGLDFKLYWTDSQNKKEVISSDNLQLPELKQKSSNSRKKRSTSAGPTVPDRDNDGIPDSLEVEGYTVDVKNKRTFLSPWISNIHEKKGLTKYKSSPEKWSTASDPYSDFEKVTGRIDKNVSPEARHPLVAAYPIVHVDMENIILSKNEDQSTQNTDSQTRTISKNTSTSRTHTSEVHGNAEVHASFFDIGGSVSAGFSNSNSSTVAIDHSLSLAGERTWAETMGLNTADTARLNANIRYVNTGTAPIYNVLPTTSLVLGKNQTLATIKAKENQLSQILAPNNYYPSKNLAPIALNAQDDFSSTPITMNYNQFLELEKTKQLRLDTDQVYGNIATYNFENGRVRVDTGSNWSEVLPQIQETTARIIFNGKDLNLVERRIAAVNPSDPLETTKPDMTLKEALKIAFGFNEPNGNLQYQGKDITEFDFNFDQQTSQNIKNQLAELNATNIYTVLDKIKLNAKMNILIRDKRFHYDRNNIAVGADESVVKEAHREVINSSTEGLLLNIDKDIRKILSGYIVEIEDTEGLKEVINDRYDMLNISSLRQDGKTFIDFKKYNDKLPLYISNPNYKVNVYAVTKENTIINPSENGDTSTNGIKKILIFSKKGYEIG

[8] = target: T1, Alpha-hemolysin (Staphylococcus aureus) (UniProt P09616); assay: Inhibition of Staphylococcus aureus alpha-hemolysin reconstituted in diphytanoylphosphatidylcholine lipid membranes assessed as inhibition of channel conductance at 2 uM
T1 sequence (whole entry): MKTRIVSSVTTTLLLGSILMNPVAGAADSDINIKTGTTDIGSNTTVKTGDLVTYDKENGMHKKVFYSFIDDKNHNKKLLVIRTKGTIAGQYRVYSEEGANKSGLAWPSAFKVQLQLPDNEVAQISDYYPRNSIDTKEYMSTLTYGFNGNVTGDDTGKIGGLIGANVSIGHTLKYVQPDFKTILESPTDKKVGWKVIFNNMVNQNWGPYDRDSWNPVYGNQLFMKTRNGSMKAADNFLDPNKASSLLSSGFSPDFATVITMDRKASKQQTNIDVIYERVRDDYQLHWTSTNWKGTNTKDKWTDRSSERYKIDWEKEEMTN

Which results are given for `N[C@@H](COCc1ccccc1)CC(=O)NC[C@H]1O[C@@H]2O[C@H]3[C@H](O)[C@@H](O)[C@@H](O[C@H]4[C@H](O)[C@@H](O)[C@@H](O[C@H]5[C@H](O)[C@@H](O)[C@@H](O[C@H]6[C@H](O)[C@@H](O)[C@@H](O[C@H]7[C@H](O)[C@@H](O)[C@@H](O[C@H]8[C@H](O)[C@@H](O)[C@@H](O[C@H]1[C@H](O)[C@H]2O)O[C@@H]8CNC(O)[C@@H](N)COCc1ccccc1)O[C@@H]7CNC(=O)[C@@H](N)COCc1ccccc1)O[C@@H]6CNC(=O)[C@@H](N)COCc1ccccc1)O[C@@H]5CNC(=O)[C@@H](N)COCc1ccccc1)O[C@@H]4CNC(=O)[C@@H](N)COCc1ccccc1)O[C@@H]3CNC(=O)[C@@H](N)COCc1ccccc1.O=C(O)C(F)(F)F.O=C(O)C(F)(F)F.O=C(O)C(F)(F)F.O=C(O)C(F)(F)F.O=C(O)C(F)(F)F.O=C(O)C(F)(F)F.O=C(O)C(F)(F)F` (stereo partly drawn)?
Activity (RAW264.7 [1]): Non-toxic; IC50 [2]: 0.6 µM; IC50 (RAW264.7 [3]): > 25 µM; IC50 (Erythrocyte [4]): 6.1 µM

Which results are given for `N[C@@H](CSCc1ccccc1)CC(=O)NC[C@H]1O[C@@H]2O[C@H]3[C@H](O)[C@@H](O)[C@@H](O[C@H]4[C@H](O)[C@@H](O)[C@@H](O[C@H]5[C@H](O)[C@@H](O)[C@@H](O[C@H]6[C@H](O)[C@@H](O)[C@@H](O[C@H]7[C@H](O)[C@@H](O)[C@@H](O[C@H]8[C@H](O)[C@@H](O)[C@@H](O[C@H]1[C@H](O)[C@H]2O)O[C@@H]8CNC(O)[C@@H](N)CSCc1ccccc1)O[C@@H]7CNC(=O)[C@@H](N)CSCc1ccccc1)O[C@@H]6CNC(=O)[C@@H](N)CSCc1ccccc1)O[C@@H]5CNC(=O)[C@@H](N)CSCc1ccccc1)O[C@@H]4CNC(=O)[C@@H](N)CSCc1ccccc1)O[C@@H]3CNC(=O)[C@@H](N)CSCc1ccccc1.O=C(O)C(F)(F)F.O=C(O)C(F)(F)F.O=C(O)C(F)(F)F.O=C(O)C(F)(F)F.O=C(O)C(F)(F)F.O=C(O)C(F)(F)F.O=C(O)C(F)(F)F` (stereo partly drawn)?
Activity (RAW264.7 [1]): Non-toxic; IC50 [2]: 0.6 µM; IC50 (RAW264.7 [3]): > 25 µM; IC50 (Erythrocyte [4]): 10.6 µM

Which results are given for `Cl.Cl.Cl.Cl.Cl.Cl.Cl.N[C@@H](CO)CC(=O)NC[C@H]1O[C@@H]2O[C@H]3[C@H](O)[C@@H](O)[C@@H](O[C@H]4[C@H](O)[C@@H](O)[C@@H](O[C@H]5[C@H](O)[C@@H](O)[C@@H](O[C@H]6[C@H](O)[C@@H](O)[C@@H](O[C@H]7[C@H](O)[C@@H](O)[C@@H](O[C@H]8[C@H](O)[C@@H](O)[C@@H](O[C@H]1[C@H](O)[C@H]2O)O[C@@H]8CNC(O)[C@@H](N)CO)O[C@@H]7CNC(=O)[C@@H](N)CO)O[C@@H]6CNC(=O)[C@@H](N)CO)O[C@@H]5CNC(=O)[C@@H](N)CO)O[C@@H]4CNC(=O)[C@@H](N)CO)O[C@@H]3CNC(=O)[C@@H](N)CO` (stereo partly drawn)?
Activity (RAW264.7 [1]): Non-toxic; IC50 [2]: 0.6 µM; IC50 (RAW264.7 [3]): > 25 µM; IC50 (Erythrocyte [4]): > 25 µM

Which Activity (RAW264.7 [1]) does the source give for `Cl.Cl.Cl.Cl.Cl.Cl.Cl.N[C@@H](CS)CC(=O)NC[C@H]1O[C@@H]2O[C@H]3[C@H](O)[C@@H](O)[C@@H](O[C@H]4[C@H](O)[C@@H](O)[C@@H](O[C@H]5[C@H](O)[C@@H](O)[C@@H](O[C@H]6[C@H](O)[C@@H](O)[C@@H](O[C@H]7[C@H](O)[C@@H](O)[C@@H](O[C@H]8[C@H](O)[C@@H](O)[C@@H](O[C@H]1[C@H](O)[C@H]2O)O[C@@H]8CNC(O)[C@@H](N)CS)O[C@@H]7CNC(=O)[C@@H](N)CS)O[C@@H]6CNC(=O)[C@@H](N)CS)O[C@@H]5CNC(=O)[C@@H](N)CS)O[C@@H]4CNC(=O)[C@@H](N)CS)O[C@@H]3CNC(=O)[C@@H](N)CS` (stereo partly drawn) here?
The Activity was “Non-toxic”.

What about the IC50 [2] of the same molecule?
Its IC50 is 0.6 µM.

And the IC50 (RAW264.7 [3])?
The IC50 was greater than 25 µM.

And the IC50 (Erythrocyte [4])?
The IC50 was greater than 25 µM.

What does the source list for `CC(C)(C)OC(=O)N[C@@H](CCCN)CC(=O)NC[C@H]1O[C@@H]2O[C@H]3[C@H](O)[C@@H](O)[C@@H](O[C@H]4[C@H](O)[C@@H](O)[C@@H](O[C@H]5[C@H](O)[C@@H](O)[C@@H](O[C@H]6[C@H](O)[C@@H](O)[C@@H](O[C@H]7[C@H](O)[C@@H](O)[C@@H](O[C@H]8[C@H](O)[C@@H](O)[C@@H](O[C@H]1[C@H](O)[C@H]2O)O[C@@H]8CNC(O)[C@H](CCCN)NC(=O)OC(C)(C)C)O[C@@H]7CNC(=O)[C@H](CCCN)NC(=O)OC(C)(C)C)O[C@@H]6CNC(=O)[C@H](CCCN)NC(=O)OC(C)(C)C)O[C@@H]5CNC(=O)[C@H](CCCN)NC(=O)OC(C)(C)C)O[C@@H]4CNC(=O)[C@H](CCCN)NC(=O)OC(C)(C)C)O[C@@H]3CNC(=O)[C@H](CCCN)NC(=O)OC(C)(C)C.Cl.Cl.Cl.Cl.Cl.Cl` (stereo partly drawn)?
Activity (RAW264.7 [1]): Non-toxic; IC50 [2]: 0.6 µM; IC50 (RAW264.7 [3]): 3.5 µM; IC50 (Erythrocyte [4]): 5.6 µM; Activity (RAW264.7 [5]): Active; Activity (Erythrocyte [6]): Active; Activity [7]: Active; Activity [8]: Active

For `Cl.Cl.Cl.Cl.Cl.Cl.Cl.Cl.Cl.Cl.Cl.Cl.Cl.Cl.NCCC[C@H](N)CC(=O)NC[C@H]1O[C@@H]2O[C@H]3[C@H](O)[C@@H](O)[C@@H](O[C@H]4[C@H](O)[C@@H](O)[C@@H](O[C@H]5[C@H](O)[C@@H](O)[C@@H](O[C@H]6[C@H](O)[C@@H](O)[C@@H](O[C@H]7[C@H](O)[C@@H](O)[C@@H](O[C@H]8[C@H](O)[C@@H](O)[C@@H](O[C@H]1[C@H](O)[C@H]2O)O[C@@H]8CNC(O)[C@@H](N)CCCN)O[C@@H]7CNC(=O)[C@@H](N)CCCN)O[C@@H]6CNC(=O)[C@@H](N)CCCN)O[C@@H]5CNC(=O)[C@@H](N)CCCN)O[C@@H]4CNC(=O)[C@@H](N)CCCN)O[C@@H]3CNC(=O)[C@@H](N)CCCN` (stereo partly drawn), which Activity (RAW264.7 [1]) is on record?
Its Activity is “Non-toxic”.

And the IC50 [2]?
Its IC50 is 0.6 µM.

And the IC50 (RAW264.7 [3])?
The IC50 was greater than 25 µM.

What about the IC50 (Erythrocyte [4]) of the same molecule?
Its IC50 is greater than 25 µM.
